Measured values as given in paper PMC8620908, “Design, Synthesis, In Vitro Anticancer Evaluation and Molecular Modelling Studies of 3,4,5-Trimethoxyphenyl-Based Derivatives as Dual EGFR/HDAC Hybrid Inhibitors” (Pharmaceuticals, 2021).
“And” between values parts separate entries of the source, which are not always exact repeats. Identical values can stand only once. “Also recorded” adds a separate entry of the source.

Legend:
[1] = system: Caspase-8; experiment: Caspase-8 level assay in HepG2 cancer cell line; assay type: cell-based, human
[2] = target: T1, HDAC6 (Homo sapiens, UniProt Q9UBN7); experiment: In vitro HDAC inhibition assay, HDAC6
T1 sequence (Q9UBN7 1-1215): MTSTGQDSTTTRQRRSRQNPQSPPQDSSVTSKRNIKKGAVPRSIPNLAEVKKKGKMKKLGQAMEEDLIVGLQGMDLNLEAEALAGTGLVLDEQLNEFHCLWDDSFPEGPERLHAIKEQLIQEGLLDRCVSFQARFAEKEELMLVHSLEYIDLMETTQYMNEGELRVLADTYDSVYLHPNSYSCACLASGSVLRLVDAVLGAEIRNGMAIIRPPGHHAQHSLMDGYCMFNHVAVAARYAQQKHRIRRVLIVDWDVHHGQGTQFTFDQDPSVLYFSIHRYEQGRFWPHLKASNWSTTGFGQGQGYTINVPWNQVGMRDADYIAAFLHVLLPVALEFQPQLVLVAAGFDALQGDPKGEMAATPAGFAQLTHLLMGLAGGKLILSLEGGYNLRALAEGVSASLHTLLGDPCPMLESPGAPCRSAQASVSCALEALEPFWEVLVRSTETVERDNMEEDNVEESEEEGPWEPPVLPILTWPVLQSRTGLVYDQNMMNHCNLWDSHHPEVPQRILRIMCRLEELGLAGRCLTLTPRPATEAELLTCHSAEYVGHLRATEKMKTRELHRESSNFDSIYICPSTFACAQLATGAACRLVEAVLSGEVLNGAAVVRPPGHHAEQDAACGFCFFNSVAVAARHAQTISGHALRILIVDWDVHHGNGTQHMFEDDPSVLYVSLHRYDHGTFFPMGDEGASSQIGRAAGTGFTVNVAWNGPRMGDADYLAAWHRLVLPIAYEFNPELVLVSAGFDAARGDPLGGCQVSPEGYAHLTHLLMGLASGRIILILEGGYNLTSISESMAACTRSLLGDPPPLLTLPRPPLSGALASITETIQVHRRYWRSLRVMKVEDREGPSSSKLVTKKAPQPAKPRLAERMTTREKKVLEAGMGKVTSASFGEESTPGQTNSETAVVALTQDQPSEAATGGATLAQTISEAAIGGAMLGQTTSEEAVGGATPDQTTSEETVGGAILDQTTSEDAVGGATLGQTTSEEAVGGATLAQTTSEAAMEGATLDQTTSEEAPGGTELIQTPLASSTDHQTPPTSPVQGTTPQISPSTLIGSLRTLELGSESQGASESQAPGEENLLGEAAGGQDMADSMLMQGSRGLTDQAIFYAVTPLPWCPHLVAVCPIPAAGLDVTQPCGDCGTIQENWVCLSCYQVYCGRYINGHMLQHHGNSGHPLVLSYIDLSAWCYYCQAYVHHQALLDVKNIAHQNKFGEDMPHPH

[3] = system: HepG2; experiment: Antiproliferative MTT assay, HepG2; conditions: Homo sapiens, HepG2, read-out: Antiproliferative Activity IC50 ± SEM, HepG2
[4] = target: T2, HDAC8 (Homo sapiens, UniProt Q9BY41); experiment: In vitro HDAC inhibition assay, HDAC8
T2 sequence (Q9BY41 1-377): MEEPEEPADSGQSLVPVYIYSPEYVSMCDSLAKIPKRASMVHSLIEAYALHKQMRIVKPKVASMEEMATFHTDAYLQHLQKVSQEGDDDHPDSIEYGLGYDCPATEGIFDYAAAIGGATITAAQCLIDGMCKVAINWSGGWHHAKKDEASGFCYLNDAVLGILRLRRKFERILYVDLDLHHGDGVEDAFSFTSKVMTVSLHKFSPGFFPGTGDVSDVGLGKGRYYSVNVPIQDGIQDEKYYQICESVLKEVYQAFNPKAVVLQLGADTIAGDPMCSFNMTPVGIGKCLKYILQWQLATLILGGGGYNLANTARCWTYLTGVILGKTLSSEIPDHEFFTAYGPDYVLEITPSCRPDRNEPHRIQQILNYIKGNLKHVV

[5] = system: Bax; experiment: Bax level assay in HepG2 cancer cell line; assay type: cell-based
[6] = system: HepG2 cancer cell line; experiment: Cell apoptosis assay, Annexin V/PI flow cytometry; assay type: cell-based
Description: Apoptosis was determined by flow cytometry based on the Annexin-V-fluoresce in isothiocyanate (FITC) and propidium iodide (PI) staining kit (BD Pharmingen, San Diego, CA, USA). See Section 4.2.5 in Supplementary Materials.
4.2.5. Cell apoptosis assay
Apoptosis was determined by flow cytometry based on the Annexin-V-fluoresce in isothiocyanate (FITC) and propidium iodide (PI) staining kit (BD Pharmingen, San Diego, USA). Apoptotic cells were defined as Annexin-V-positive. Cells were grown to approximately ∼70% confluence and exposed to different concentrations of compounds (0, 2, 4, 6 and8 μmol/L) for 24 h. Treated cells were trypsinized, washed twice with PBS and transferred into micro centrifuge tubes for centrifugation at1000 rpm for 5 min at room temperature, then resuspended in binding buffer, 5 μL of FITC and PI were added to per eppendorf tube, cells were vortexed, incubated for 15 min at room temperature in dark. Subsequently, cells were analyzed by flow cytometry (Becton Dickinson, Franklin Lakes, USA).
4.3. Statistical analysis
Computerized GraphPad Prism software was used to statistically analyzed data using one-way ANOVA test followed by Tukey’s as post ANOVA for multiple comparison at P ≤.05. Data were presented as mean ± SEM. […]

[7] = system: Bcl-2; experiment: Bcl-2 level assay in HepG2 cancer cell line; assay type: cell-based; conditions: HepG2, versus control
[8] = target: HDAC2 (Homo sapiens, UniProt Q92769); experiment: In vitro HDAC inhibition assay, HDAC2
[9] = target: HDAC1 (Homo sapiens, UniProt Q13547); experiment: In vitro HDAC inhibition assay, HDAC1
[10] = system: EGFR; experiment: Western blot assay, EGFR in HepG2; assay type: cell-based; conditions: HepG2, 4b used at its IC50 of 0.536 µM
Description: (§1) Western blot assay was carried out according to the previously reported protocol.

[11] = system: MCF-7; experiment: Antiproliferative MTT assay, MCF-7; conditions: Homo sapiens, MCF7, read-out: Antiproliferative Activity IC50 ± SEM, MCF-7
[12] = target: EGFR (Homo sapiens, UniProt P00533); experiment: EGFR-TK inhibition, cell-free assay; assay type: biochemical
[13] = target: HDAC4 (Homo sapiens, UniProt P56524); experiment: In vitro HDAC inhibition assay, HDAC4
[14] = system: HepG2 cancer cell line; experiment: Flow cytometric cell cycle analysis; assay type: cell-based
[15] = system: HDAC6; experiment: Western blot assay, HDAC6 in HepG2; assay type: cell-based; conditions: HepG2, 4b used at its IC50 of 0.536 µM
Description: as §1

[16] = system: A549; experiment: Antiproliferative MTT assay, A549; conditions: Homo sapiens, A549, read-out: Antiproliferative Activity IC50 ± SEM, A549
[17] = system: Caspase-3; experiment: Caspase-3 level assay in HepG2 cancer cell line; assay type: cell-based, human
[18] = system: HCT116; experiment: Antiproliferative MTT assay, HCT116; conditions: Homo sapiens, HCT-116, read-out: Antiproliferative Activity IC50 ± SEM, HCT116

HDAC2, sequence (Q92769 whole entry): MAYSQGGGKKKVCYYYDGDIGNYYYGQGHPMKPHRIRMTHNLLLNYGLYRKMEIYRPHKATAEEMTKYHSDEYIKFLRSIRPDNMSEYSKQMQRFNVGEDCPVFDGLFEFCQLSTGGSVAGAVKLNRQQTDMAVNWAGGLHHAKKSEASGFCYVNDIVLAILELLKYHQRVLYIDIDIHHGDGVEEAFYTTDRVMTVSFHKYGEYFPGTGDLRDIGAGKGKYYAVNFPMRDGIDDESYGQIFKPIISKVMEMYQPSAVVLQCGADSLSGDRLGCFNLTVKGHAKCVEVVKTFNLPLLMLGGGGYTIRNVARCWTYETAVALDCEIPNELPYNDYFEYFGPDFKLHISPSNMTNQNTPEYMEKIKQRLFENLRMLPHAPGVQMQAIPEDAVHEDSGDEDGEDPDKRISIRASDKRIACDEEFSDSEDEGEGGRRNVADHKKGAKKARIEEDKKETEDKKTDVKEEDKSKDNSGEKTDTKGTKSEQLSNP
HDAC1, sequence (Q13547 whole entry): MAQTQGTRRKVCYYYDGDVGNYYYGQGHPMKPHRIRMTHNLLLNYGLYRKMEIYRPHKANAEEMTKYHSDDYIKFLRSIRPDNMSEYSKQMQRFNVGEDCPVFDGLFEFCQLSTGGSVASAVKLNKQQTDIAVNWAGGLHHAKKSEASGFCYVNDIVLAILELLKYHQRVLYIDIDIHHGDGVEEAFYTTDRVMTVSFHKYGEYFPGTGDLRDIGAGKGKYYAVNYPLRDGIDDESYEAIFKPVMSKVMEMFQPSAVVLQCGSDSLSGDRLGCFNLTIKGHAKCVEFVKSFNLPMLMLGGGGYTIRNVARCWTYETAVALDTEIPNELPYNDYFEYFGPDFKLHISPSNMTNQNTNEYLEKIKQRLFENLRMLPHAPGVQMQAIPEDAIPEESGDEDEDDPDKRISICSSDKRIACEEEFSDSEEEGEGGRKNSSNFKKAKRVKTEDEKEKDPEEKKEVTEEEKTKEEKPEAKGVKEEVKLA
HDAC4, sequence (P56524 whole entry): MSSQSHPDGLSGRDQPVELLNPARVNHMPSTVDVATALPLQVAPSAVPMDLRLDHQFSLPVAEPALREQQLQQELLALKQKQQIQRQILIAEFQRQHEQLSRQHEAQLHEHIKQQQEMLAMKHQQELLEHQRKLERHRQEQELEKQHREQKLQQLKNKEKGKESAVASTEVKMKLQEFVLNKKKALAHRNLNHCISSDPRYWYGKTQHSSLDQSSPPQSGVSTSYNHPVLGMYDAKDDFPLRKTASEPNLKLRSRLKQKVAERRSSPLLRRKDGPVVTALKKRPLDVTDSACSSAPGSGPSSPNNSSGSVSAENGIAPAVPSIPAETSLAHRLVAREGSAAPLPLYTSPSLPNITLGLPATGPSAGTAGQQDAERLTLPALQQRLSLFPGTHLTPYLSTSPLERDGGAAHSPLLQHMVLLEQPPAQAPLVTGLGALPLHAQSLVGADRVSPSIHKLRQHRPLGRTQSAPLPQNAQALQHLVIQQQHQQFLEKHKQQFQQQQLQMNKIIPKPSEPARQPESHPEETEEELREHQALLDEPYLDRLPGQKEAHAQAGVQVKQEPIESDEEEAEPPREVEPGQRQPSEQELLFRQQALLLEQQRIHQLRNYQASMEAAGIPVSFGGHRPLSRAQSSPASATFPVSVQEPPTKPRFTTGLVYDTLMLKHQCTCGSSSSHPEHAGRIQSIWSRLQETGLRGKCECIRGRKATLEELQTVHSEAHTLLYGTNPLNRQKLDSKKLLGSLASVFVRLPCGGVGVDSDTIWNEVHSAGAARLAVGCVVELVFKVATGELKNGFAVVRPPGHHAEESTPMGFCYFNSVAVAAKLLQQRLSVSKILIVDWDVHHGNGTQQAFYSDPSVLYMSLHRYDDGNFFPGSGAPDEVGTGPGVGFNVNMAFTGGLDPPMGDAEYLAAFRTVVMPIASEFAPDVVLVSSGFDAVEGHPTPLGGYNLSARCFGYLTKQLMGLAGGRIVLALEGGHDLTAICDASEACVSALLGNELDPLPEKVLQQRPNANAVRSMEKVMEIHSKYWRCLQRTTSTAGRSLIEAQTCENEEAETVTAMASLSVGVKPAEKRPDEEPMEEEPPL
EGFR (Homo sapiens, UniProt P00533), sequence (P00533 25-1210): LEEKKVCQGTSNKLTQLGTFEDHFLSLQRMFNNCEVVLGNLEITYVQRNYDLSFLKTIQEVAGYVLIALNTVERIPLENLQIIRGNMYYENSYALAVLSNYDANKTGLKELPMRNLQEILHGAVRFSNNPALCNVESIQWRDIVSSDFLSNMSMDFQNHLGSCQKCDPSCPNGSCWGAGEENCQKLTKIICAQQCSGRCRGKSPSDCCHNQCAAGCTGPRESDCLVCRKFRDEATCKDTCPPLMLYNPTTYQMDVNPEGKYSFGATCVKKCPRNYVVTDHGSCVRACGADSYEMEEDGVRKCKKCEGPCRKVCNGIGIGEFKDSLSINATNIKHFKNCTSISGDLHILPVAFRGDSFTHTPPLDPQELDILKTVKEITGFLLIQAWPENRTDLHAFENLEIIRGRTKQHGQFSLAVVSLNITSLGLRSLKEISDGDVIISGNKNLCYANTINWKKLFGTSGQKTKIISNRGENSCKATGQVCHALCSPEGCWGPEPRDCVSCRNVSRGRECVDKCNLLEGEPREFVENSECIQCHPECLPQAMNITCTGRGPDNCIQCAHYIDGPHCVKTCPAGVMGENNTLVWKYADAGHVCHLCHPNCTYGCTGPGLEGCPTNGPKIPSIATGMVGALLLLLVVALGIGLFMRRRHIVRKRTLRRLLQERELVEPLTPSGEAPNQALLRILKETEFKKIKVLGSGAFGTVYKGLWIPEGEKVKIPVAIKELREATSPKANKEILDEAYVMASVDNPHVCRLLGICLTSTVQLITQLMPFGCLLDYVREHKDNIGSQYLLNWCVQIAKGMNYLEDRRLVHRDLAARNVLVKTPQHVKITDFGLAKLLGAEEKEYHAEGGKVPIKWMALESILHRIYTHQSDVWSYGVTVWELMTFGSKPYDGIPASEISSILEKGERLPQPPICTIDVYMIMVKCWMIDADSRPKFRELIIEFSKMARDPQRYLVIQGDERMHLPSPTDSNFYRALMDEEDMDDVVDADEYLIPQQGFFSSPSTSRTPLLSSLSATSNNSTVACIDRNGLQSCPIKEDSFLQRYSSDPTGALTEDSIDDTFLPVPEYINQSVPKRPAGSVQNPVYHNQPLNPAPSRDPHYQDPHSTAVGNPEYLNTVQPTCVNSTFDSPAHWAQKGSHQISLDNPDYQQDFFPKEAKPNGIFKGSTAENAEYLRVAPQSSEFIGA

With `COc1cc(/C=C/C(=O)c2ccc(OCCCCCC(=O)NO)cc2)cc(OC)c1OC` [4b, (E)-N-Hydroxy-6-(4-(3-(3,4,5-Trimethoxyphenyl)Acryloyl)Phenoxy) Hexanamide] the “Caspase-8 Fold Change” value ([1]; HepG2, versus control) was 3.15 fold, the “Caspase-8 Conc” value ([1]; HepG2 cancer cell line) was 1.078 ng/mL and 1.078 ± 0.046 ng/mL and the IC50 [2] was 60 nM. For the same compound, the IC50 [3] was 536 ± 30 nM, the IC50 [4] was 2260 nM and the “Bax Fold Change” value ([5]; HepG2, versus control) was 3.75 fold. For the same compound, the “Bax Conc” value ([5]; HepG2 cancer cell line) was 398.9 ± 14.3 pg/mL, the “Apoptosis Late” value ([6]; control 0.12) was 24.67 and the “percentage of cell apoptosis (late; upper right quadrant Annexin V/PI)” value ([6]; control 0.12%) was 24.67%. For the same compound, the “Apoptosis Early” value ([6]; control 0.34) was 9.33, the Necrosis ([6]; control 1.7) was 13.21 and the “Apoptosis Total” value ([6]; control 2.16) was 47.21. The “Bcl-2 Fold Change” value [7] was 0.42 fold, the IC50 [8] was 168 nM and the IC50 [9] was 148 nM. The “EGFR expression (Western blot)” value [10] was “decrease”, the IC50 [11] was 621 ± 30 nM and the IC50 [12] was 63 ± 2 nM. The IC50 [13] was 5850 nM, the “Comment (cell cycle arrest)” value [14] was “cell cycle arrest at G1/S phase; also recorded: cell growth arrest at G1/S” and the “%Pre-G1” value ([14]; control 2.16) was 47.21%. For the same compound, the “%G2/M” value ([14]; control 20.45) was 7.85%, the “%S” value ([14]; control 36.58) was 39.11% and the “%G0–G1” value ([14]; control 42.97) was 53.04%. For the same compound, the “HDAC6 expression (Western blot)” value [15] was “decrease”, the IC50 [16] was 797 ± 40 nM and the “Caspase-3 Conc” value [17] was 483.2 pg/mL and 483.2 ± 14.72 pg/mL. It also gave an IC50 [18] of 1210 ± 70 nM.
